# Columns and labels:
# Type in all cases: functional
# [1] = test system: Candida albicans; test: Antifungal activity against Candida albicans assessed as growth inhibition after 48 hr by macrodilution method
# [2] = test system: Streptococcus pyogenes; test: Antibacterial activity against Streptococcus pyogenes assessed as growth inhibition after 24 hr by macrodilution method
# [3] = test system: Pseudomonas aeruginosa; test: Antibacterial activity against Pseudomonas aeruginosa ATCC 27853 assessed as growth inhibition after 24 hr by disk diffusion assay
# [4] = test system: Talaromyces marneffei; test: Antifungal activity against Talaromyces marneffei assessed as growth inhibition after 3 to 4 days by disk diffusion assay
# [5] = test system: Streptococcus pyogenes; test: Bactericidal activity against Streptococcus pyogenes after 18 to 24 hr
# [6] = test system: Aspergillus fumigatus; test: Antifungal activity against Aspergillus fumigatus assessed as growth inhibition after 48 hr by macrodilution method
# [7] = test system: Escherichia coli; test: Antibacterial activity against Escherichia coli ATCC 25922 assessed as growth inhibition after 24 hr by macrodilution method; details: ATCC 25922, 24 h
# [8] = test system: Aspergillus fumigatus; test: Fungicidal activity against Aspergillus fumigatus after 48 hr
# [9] = test system: Escherichia coli; test: Bactericidal activity against Escherichia coli ATCC 25922 after 18 to 24 hr
# [10] = test system: Klebsiella pneumoniae; test: Bactericidal activity against Klebsiella pneumoniae clinical isolate after 18 to 24 hr
# [11] = test system: Aspergillus fumigatus; test: Antifungal activity against Aspergillus fumigatus assessed as growth inhibition after 3 to 4 days by disk diffusion assay
# [12] = test system: Candida albicans; test: Antifungal activity against Candida albicans assessed as growth inhibition after 3 to 4 days by disk diffusion assay
# [13] = test system: Streptococcus pyogenes; test: Antibacterial activity against Streptococcus pyogenes assessed as growth inhibition after 24 hr by disk diffusion assay
# [14] = test system: Escherichia coli; test: Antibacterial activity against Escherichia coli ATCC 25922 assessed as growth inhibition after 24 hr by disk diffusion assay
# [15] = test system: Candida albicans; test: Fungicidal activity against Candida albicans after 48 hr
# [16] = test system: Trichophyton mentagrophytes; test: Antifungal activity against Trichophyton mentagrophytes assessed as growth inhibition after 48 hr by macrodilution method
# [17] = test system: Klebsiella pneumoniae; test: Antibacterial activity against Klebsiella pneumoniae clinical isolate assessed as growth inhibition after 24 hr by disk diffusion assay
# [18] = test system: Staphylococcus aureus; test: Antibacterial activity against methicillin-resistant Staphylococcus aureus assessed as growth inhibition after 24 hr by disk diffusion assay
# [19] = test system: Talaromyces marneffei; test: Fungicidal activity against Talaromyces marneffei after 48 hr
# [20] = test system: Talaromyces marneffei; test: Antifungal activity against Talaromyces marneffei assessed as growth inhibition after 48 hr by macrodilution method
# [21] = test system: Klebsiella pneumoniae; test: Antibacterial activity against Klebsiella pneumoniae clinical isolate assessed as growth inhibition after 24 hr by macrodilution method
# [22] = test system: Staphylococcus aureus; test: Antibacterial activity against methicillin-resistant Staphylococcus aureus assessed as growth inhibition after 24 hr by macrodilution method
# [23] = test system: Pseudomonas aeruginosa; test: Bactericidal activity against Pseudomonas aeruginosa ATCC 27853 after 18 to 24 hr
# [24] = test system: Staphylococcus aureus; test: Bactericidal activity against methicillin-resistant Staphylococcus aureus after 18 to 24 hr
# [25] = test system: Trichophyton mentagrophytes; test: Antifungal activity against Trichophyton mentagrophytes assessed as growth inhibition after 3 to 4 days by disk diffusion assay
# [26] = test system: Pseudomonas aeruginosa; test: Antibacterial activity against Pseudomonas aeruginosa ATCC 27853 assessed as growth inhibition after 24 hr by macrodilution method; details: ATCC 27853, 24 h
# [27] = test system: Trichophyton mentagrophytes; test: Fungicidal activity against Trichophyton mentagrophytes after 48 hr
SMILES,MIC [1] [µg/mL],MIC [2] [µg/mL],diameter of the inhibition zone (DIZ) [3] [mm],diameter of the inhibition zone (DIZ) [4] [mm],MBC [5] [µg/mL],MIC [6] [µg/mL],MIC [7] [µg/mL],MFC [8] [µg/mL],MBC [9] [µg/mL],MBC [10] [µg/mL],diameter of the inhibition zone (DIZ) [11] [mm],diameter of the inhibition zone (DIZ) [12] [mm],diameter of the inhibition zone (DIZ) [13] [mm],diameter of the inhibition zone (DIZ) [14] [mm],MFC [15] [µg/mL],MIC [16] [µg/mL],diameter of the inhibition zone (DIZ) [17] [mm],diameter of the inhibition zone (DIZ) [18] [mm],MFC [19] [µg/mL],MIC [20] [µg/mL],further results
O=c1oc2ccccc2c(O)c1C(c1c(O)c2ccccc2oc1=O)c1coc2ccccc2c1=O,25,25,26.4,13.1,50,25,25,50,50,50,16.7,19.1,21.5,22.1,100,25,17.3,18.1,100,25,MIC [21]: 12.5 µg/mL; MIC [22]: 25 µg/mL; MBC [23]: 50 µg/mL; MBC [24]: 50 µg/mL; diameter of the inhibition zone (DIZ) [25]: 19.3 mm; MIC [26]: 25 µg/mL; MFC [27]: 50 µg/mL
Cc1[nH]n(-c2ccccc2)c(=O)c1C(c1coc2ccccc2c1=O)c1c(C)[nH]n(-c2ccccc2)c1=O,25,25,13.1,14.3,50,25,25,50,100,100,20.7,23.9,16.1,15.5,50,25,14.5,15.6,100,25,MIC [21]: 25 µg/mL; MIC [22]: 25 µg/mL; MBC [23]: 100 µg/mL; MBC [24]: 50 µg/mL; diameter of the inhibition zone (DIZ) [25]: 18.1 mm; MIC [26]: 25 µg/mL; MFC [27]: 50 µg/mL
Cc1cc2oc(=O)c(C(c3c(O)c4cc(C)c(C)cc4oc3=O)c3coc4ccccc4c3=O)c(O)c2cc1C,12.5,12.5,23.3,14.8,25,12.5,25,25,50,50,22.1,27.2,21.2,20.8,25,12.5,19.3,20.7,25,12.5,MIC [21]: 12.5 µg/mL; MIC [22]: 12.5 µg/mL; MBC [23]: 25 µg/mL; MBC [24]: 25 µg/mL; diameter of the inhibition zone (DIZ) [25]: 19.4 mm; MIC [26]: 12.5 µg/mL; MFC [27]: 50 µg/mL

# Reference: ChEMBL document CHEMBL3045612, “Solvent- and catalyst-free synthesis of bis-adducts of 3-formylchromone as potential antimicrobial agents” (2013)
